{
  "source": "patent US9637473B2",
  "about": "“Acrylamide derivatives as antimalarial agents” (priority 2013, dated 2017)",
  "note": "Structures can show the parent of a compound that is named as a salt.",
  "data": [
    {"system": "P. Falciparum NF54", "assay": "Plasmodium falciparum in vitro assay ([3H]-hypoxanthine incorporation)", "format": "cell-based", "conditions": "Plasmodium falciparum, Erythrocyte, P. Falciparum NF54, erythrocytic stages in human red blood cells, 50% human serum", "in_short": "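This in vitro antimalarial assay used P. falciparum erythrocytic stages cultured in human erythrocytes and measured [3H]-hypoxanthine incorporation. Radioactivity on the dried filters, placed in plastic foil with 10 mL scintillation fluid, was counted in a Betaplate liquid scintillation counter. Sigmoidal inhibition curves built in Microsoft Excel gave the IC50.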", "units": {"IC50": "µM"}, "values": [
      {"smiles": "Cc1cc(Nc2cccc(CN(C(=O)/C=C/c3ccc(C(F)(F)F)cc3)C3CCN(C(C)C)CC3)n2)ccn1", "note": "[Example 129, (E)-N-(1-Isopropyl-piperidin-4-yl)-N-[6-(2-methyl-pyridin-4-ylamino)-pyridin-2-ylmethyl]-3-(4-trifluoromethyl-phenyl)-acrylamide formate]", "IC50": 0.021},
      {"smiles": "Cc1cnccc1Nc1cccc(CN(C(=O)/C=C/c2ccc(C(F)(F)F)cc2)C2CCN(C(C)C)CC2)n1", "note": "[Example 130, (E)-N-(1-Isopropyl-piperidin-4-yl)-N-[6-(3-methyl-pyridin-4-ylamino)-pyridin-2-ylmethyl]-3-(4-trifluoromethyl-phenyl)-acrylamide formate]", "IC50": 0.042},
      {"smiles": "CC(C)N1CCC(N(Cc2cccc(Nc3ccncc3F)n2)C(=O)/C=C/c2ccc(C(F)(F)F)cc2)CC1", "note": "[Example 131, (E)-N-[6-(3-Fluoro-pyridin-4-ylamino)-pyridin-2-ylmethyl]-N-(1-isopropyl-piperidin-4-yl)-3-(4-trifluoromethyl-phenyl)-acrylamide formate]", "IC50": 0.303},
      {"smiles": "CC(C)N1CCC(N(Cc2cccc(Nc3ccncc3)n2)C(=O)/C=C/c2ccc(C(F)(F)F)cc2)CC1", "note": "[Example 132, (E)-N-(1-Isopropyl-piperidin-4-yl)-N-[6-(pyridin-4-ylamino)-pyridin-2-ylmethyl]-3-(4-trifluoromethyl-phenyl)-acrylamide formate]", "IC50": 0.022},
      {"smiles": "CC(C)N1CCC(N(Cc2cncc(N(C)c3ccncc3)c2)C(=O)/C=C/c2ccc(C(F)(F)F)cc2)CC1", "note": "[Example 133, (E)-N-(1-Isopropyl-piperidin-4-yl)-N-[5-(methyl-pyridin-4-yl-amino)-pyridin-3-ylmethyl]-3-(4-trifluoromethyl-phenyl)-acrylamide formate]", "IC50": 0.069},
      {"smiles": "CC(C)N1CCC(N(Cc2cncc(N(C)c3cccnc3)c2)C(=O)/C=C/c2ccc(C(F)(F)F)cc2)CC1", "note": "[Example 134, (E)-N-(1-Isopropyl-piperidin-4-yl)-N-[5-(methyl-pyridin-3-yl-amino)-pyridin-3-ylmethyl]-3-(4-trifluoromethyl-phenyl)-acrylamide formate]", "IC50": 0.213},
      {"smiles": "Cc1cc(N(C)c2cncc(CN(C(=O)/C=C/c3ccc(C(F)(F)F)cc3)C3CCN(C(C)C)CC3)c2)ccn1", "note": "[Example 135, (E)-N-(1-Isopropyl-piperidin-4-yl)-N-{5-[methyl-(2-methyl-pyridin-4-yl)-amino]-pyridin-3-ylmethyl}-3-(4-trifluoromethyl-phenyl)-acrylamide formate]", "IC50": 0.084},
      {"smiles": "Cc1cc(Nc2cncc(CN(C(=O)/C=C/c3ccc(C(F)(F)F)cc3)C3CCN(C(C)C)CC3)c2)ccn1", "note": "[Example 136, (E)-N-(1-Isopropyl-piperidin-4-yl)-N-[5-(2-methyl-pyridin-4-ylamino)-pyridin-3-ylmethyl]-3-(4-trifluoromethyl-phenyl)-acrylamide formate]", "IC50": 0.08},
      {"smiles": "Cc1cnccc1Nc1cncc(CN(C(=O)/C=C/c2ccc(C(F)(F)F)cc2)C2CCN(C(C)C)CC2)c1", "note": "[Example 137, (E)-N-(1-Isopropyl-piperidin-4-yl)-N-[5-(3-methyl-pyridin-4-ylamino)-pyridin-3-ylmethyl]-3-(4-trifluoromethyl-phenyl)-acrylamide formate]", "IC50": 0.047},
      {"smiles": "CC(C)N1CCC(N(Cc2cncc(Nc3ccncc3F)c2)C(=O)/C=C/c2ccc(C(F)(F)F)cc2)CC1", "note": "[Example 138, (E)-N-[5-(3-Fluoro-pyridin-4-ylamino)-pyridin-3-ylmethyl]-N-(1-isopropyl-piperidin-4-yl)-3-(4-trifluoromethyl-phenyl)-acrylamide formate]", "IC50": 0.344},
      {"smiles": "CC(C)N1CCC(N(Cc2cncc(Nc3ccncn3)c2)C(=O)/C=C/c2ccc(C(F)(F)F)cc2)CC1", "note": "[Example 139, (E)-N-(1-Isopropyl-piperidin-4-yl)-N-[5-(pyrimidin-4-ylamino)-pyridin-3-ylmethyl]-3-(4-trifluoromethyl-phenyl)-acrylamide formate]", "IC50": 0.355},
      {"smiles": "CC(C)N1CCC(N(Cc2cncc(N(C)c3ccccn3)c2)C(=O)/C=C/c2ccc(C(F)(F)F)cc2)CC1", "note": "[Example 140, (E)-N-(1-Isopropyl-piperidin-4-yl)-N-[5-(methyl-pyridin-2-yl-amino)-pyridin-3-ylmethyl]-3-(4-trifluoromethyl-phenyl)-acrylamide formate]", "IC50": 0.354},
      {"smiles": "CC(C)N1CCC(N(Cc2cncc(Nc3ccncc3)c2)C(=O)/C=C/c2ccc(C(F)(F)F)cc2)CC1", "note": "[Example 141, (E)-N-(1-Isopropyl-piperidin-4-yl)-N-[5-(pyridin-4-ylamino)-pyridin-3-ylmethyl]-3-(4-trifluoromethyl-phenyl)-acrylamide formate]", "IC50": 0.082},
      {"smiles": "CC(C)N1CCC(N(Cc2cccc(N(C)c3ccncc3)c2)C(=O)/C=C/c2ccc(C(F)(F)F)cc2)CC1", "note": "[Example 142, (E)-N-(1-Isopropyl-piperidin-4-yl)-N-[3-(methyl-pyridin-4-yl-amino)-benzyl]-3-(4-trifluoromethyl-phenyl)-acrylamide formate]", "IC50": 0.027},
      {"smiles": "CC(C)Oc1ccc(/C=C/C(=O)N(Cc2ccc(N(C)c3ccncc3)cc2)C2CCN(Cc3ccccc3)CC2)cc1", "note": "[Example 143, (E)-N-(1-Benzyl-piperidin-4-yl)-3-(4-isopropoxy-phenyl)-N-[4-(methyl-pyridin-4-yl-amino)-benzyl]-acrylamide]", "IC50": 0.102},
      {"smiles": "CN(c1ccncc1)c1ccc(CN(C(=O)/C=C/c2ccc(C(C)(C)C)cc2)C2CCN(Cc3ccccc3)CC2)cc1", "note": "[Example 144, (E)-N-(1-Benzyl-piperidin-4-yl)-3-(4-tert-butyl-phenyl)-N-[4-(methyl-pyridin-4-yl-amino)-benzyl]-acrylamide]", "IC50": 0.174},
      {"smiles": "CN(c1ccncc1)c1ccc(CN(C(=O)/C=C/c2ccc(OC(F)F)cc2)C2CCN(Cc3ccccc3)CC2)cc1", "note": "[Example 145, (E)-N-(1-Benzyl-piperidin-4-yl)-3-(4-difluoromethoxy-phenyl)-N-[4-(methyl-pyridin-4-yl-amino)-benzyl]-acrylamide]", "IC50": 0.069},
      {"smiles": "CN(c1ccncc1)c1ccc(CN(C(=O)/C=C/c2ccc(OC(F)(F)F)cc2)C2CCN(Cc3ccccc3)CC2)cc1", "note": "[Example 146, (E)-N-(1-Benzyl-piperidin-4-yl)-N-[4-(methyl-pyridin-4-yl-amino)-benzyl]-3-(4-trifluoromethoxy-phenyl)-acrylamide]", "IC50": 0.048},
      {"smiles": "CCc1ccc(/C=C/C(=O)N(Cc2ccc(N(C)c3ccncc3)cc2)C2CCN(Cc3ccccc3)CC2)cc1", "note": "[Example 147, (E)-N-(1-Benzyl-piperidin-4-yl)-3-(4-ethyl-phenyl)-N-[4-(methyl-pyridin-4-yl-amino)-benzyl]-acrylamide]", "IC50": 0.157},
      {"smiles": "CCCOc1ccc(/C=C/C(=O)N(Cc2ccc(N(C)c3ccncc3)cc2)C2CCN(Cc3ccccc3)CC2)cc1", "note": "[Example 148, (E)-N-(1-Benzyl-piperidin-4-yl)-N-[4-(methyl-pyridin-4-yl-amino)-benzyl]-3-(4-propoxy-phenyl)-acrylamide]", "IC50": 0.061},
      {"smiles": "COc1ccc(/C=C/C(=O)N(Cc2ccc(N(C)c3ccncc3)cc2)C2CCN(Cc3ccccc3)CC2)cc1", "note": "[Example 149, (E)-N-(1-Benzyl-piperidin-4-yl)-3-(4-methoxy-phenyl)-N-[4-(methyl-pyridin-4-yl-amino)-benzyl]-acrylamide]", "IC50": 0.181},
      {"smiles": "COc1cccc(/C=C/C(=O)N(Cc2ccc(N(C)c3ccncc3)cc2)C2CCN(Cc3ccccc3)CC2)c1", "note": "[Example 150, (E)-N-(1-Benzyl-piperidin-4-yl)-3-(3-methoxy-phenyl)-N-[4-(methyl-pyridin-4-yl-amino)-benzyl]-acrylamide]", "IC50": 0.293},
      {"smiles": "COc1ccccc1/C=C/C(=O)N(Cc1ccc(N(C)c2ccncc2)cc1)C1CCN(Cc2ccccc2)CC1", "note": "[Example 151, (E)-N-(1-Benzyl-piperidin-4-yl)-3-(2-methoxy-phenyl)-N-[4-(methyl-pyridin-4-yl-amino)-benzyl]-acrylamide]", "IC50": 0.222},
      {"smiles": "CN(c1ccncc1)c1ccc(CN(C(=O)/C=C/c2ccc(Cl)cc2)C2CCN(Cc3ccccc3)CC2)cc1", "note": "[Example 152, (E)-N-(1-Benzyl-piperidin-4-yl)-3-(4-chloro-phenyl)-N-[4-(methyl-pyridin-4-yl-amino)-benzyl]-acrylamide]", "IC50": 0.076},
      {"smiles": "CN(c1ccncc1)c1ccc(CN(C(=O)/C=C/c2cccc(Cl)c2)C2CCN(Cc3ccccc3)CC2)cc1", "note": "[Example 153, (E)-N-(1-Benzyl-piperidin-4-yl)-3-(3-chloro-phenyl)-N-[4-(methyl-pyridin-4-yl-amino)-benzyl]-acrylamide]", "IC50": 0.087},
      {"smiles": "CN(c1ccncc1)c1ccc(CN(C(=O)/C=C/c2ccccc2Cl)C2CCN(Cc3ccccc3)CC2)cc1", "note": "[Example 154, (E)-N-(1-Benzyl-piperidin-4-yl)-3-(2-chloro-phenyl)-N-[4-(methyl-pyridin-4-yl-amino)-benzyl]-acrylamide]", "IC50": 0.145},
      {"smiles": "CN(c1ccncc1)c1ccc(CN(C(=O)/C=C/c2ccc(F)cc2)C2CCN(Cc3ccccc3)CC2)cc1", "note": "[Example 155, (E)-N-(1-Benzyl-piperidin-4-yl)-3-(4-fluoro-phenyl)-N-[4-(methyl-pyridin-4-yl-amino)-benzyl]-acrylamide]", "IC50": 0.101},
      {"smiles": "CN(c1ccncc1)c1ccc(CN(C(=O)/C=C/c2cccc(F)c2)C2CCN(Cc3ccccc3)CC2)cc1", "note": "[Example 156, (E)-N-(1-Benzyl-piperidin-4-yl)-3-(3-fluoro-phenyl)-N-[4-(methyl-pyridin-4-yl-amino)-benzyl]-acrylamide]", "IC50": 0.101},
      {"smiles": "CN(c1ccncc1)c1ccc(CN(C(=O)/C=C/c2ccccc2F)C2CCN(Cc3ccccc3)CC2)cc1", "note": "[Example 157, (E)-N-(1-Benzyl-piperidin-4-yl)-3-(2-fluoro-phenyl)-N-[4-(methyl-pyridin-4-yl-amino)-benzyl]-acrylamide]", "IC50": 0.19},
      {"smiles": "Cc1ccc(/C=C/C(=O)N(Cc2ccc(N(C)c3ccncc3)cc2)C2CCN(Cc3ccccc3)CC2)cc1", "note": "[Example 158, (E)-N-(1-Benzyl-piperidin-4-yl)-N-[4-(methyl-pyridin-4-yl-amino)-benzyl]-3-p-tolyl-acrylamide]", "IC50": 0.19}
    ]}
  ]
}
